Patent publication US7335668B2, “Pharmaceutical composition for therapy of interstitial cystitis” (priority 2001, dated 2008)

Experiments:
[1] = test system: capsaicin-sensitive sensory nerve; assay: Plasma protein extravasation induced by capsaicin in the mouse bladder (Evans blue); assay type: in vivo; settings: for reduction of capsaicin-induced increase in Evans blue dye content in the bladder: female Balb/c mice, 100 μL, about one hour before capsaicin 300 μg/kg i.v.; for intravesical concentration that inhibited extravascular leakage of plasma proteins (depressant action on capsaicin-sensitive sensory nerve): mouse bladder, infused intravesically
Experimental: In the experiment, four or five female Balb/c mice (Japan SLC, Inc.) per group were used. A catheter was inserted into the bladder of a mouse anesthetized with urethane (intraperitoneally administered with 0.15 ml of a 20% solution per mouse) via the urethra, and after emptying the bladder, a physiological saline or drug solution was injected. This catheter was prepared by blunting the tip of a 24-guage hypodermic needle and making a side hole at 2 mm from the newly prepared tip. About one hour after the instillation into the bladder, extravascular leakage of plasma proteins due to inflammatory reaction caused by stimulation of the capsaicin-sensitive sensory nerve according to the method of Maggi, et al. (Nauny-Schmiedeberg's Arch. Pharmacol., 336: pp.546-555(1987)). That is Evans blue (30 mg/kg) a dye bound by plasma proteins and capsaicin (300 μg/kg) were administered to the mouse from the tail vein, and precisely five minutes after the administration, the mouse was killed by cervical dislocation, then the bladder was removed. After removing urine and blood remaining in the tissue, the dye in the organs was quantitatively determined. Evans blue dye was extracted from the bladder by placing the tissue in 150 μL of formamide overnight, and was quantitatively determined by measuring light absorbance at a wavelength of 620 nm of 100 μL supernatant in a 96-well microplate. In addition, the content of Evans blue dye in one milligram of wet tissue was calculated. Moreover, the mouse intravesically instilled with physiological saline and intravenously administered with a capsaicin-free Evans blue solution served as a normal control. […] Capsaicin and formamide were purchased from Wako Pure Chemical Industries, Ltd., and Evans blue was purchased from Aldrich. […] Results were shown as [(mean values)±(standard errors of the mean)]. The Student's t-test was used to determine the significance of difference between the group of mice receiving […] saline and stimulated with capsaicin e and the group of normal control mice.

[2] = test system: rhythmic bladder contraction; settings: as disclosed in International Patent Publication No. 96/20194; cited from earlier work

Compound	reduction of capsaicin-induced increase in Evans blue dye content in the bladder ([1]; injected intravesically at 1 μM)	reduction of capsaicin-induced increase in Evans blue dye content in the bladder ([1]; injected intravesically at 10 μM)	reduction of capsaicin-induced increase in Evans blue dye content in the bladder ([1]; injected intravesically at 100 μM)	intravesical concentration that inhibited extravascular leakage of plasma proteins (depressant action on capsaicin-sensitive sensory nerve) [1]	effect on rat rhythmic bladder contraction [2]
O=C(O[C@H]1CN2CCC1CC2)N1CCc2ccccc2[C@@H]1c1ccccc1 [Compound 1, (+)-(1S,3′R)-quinuclidin-3′-yl 1-phenyl-1,2,3,4-tetrahydroisoquinoline-2-carboxylate]	52%	76%	80%	≥ 1 µM	–
O=C(OC1CN2CCC1CC2)N1CCc2ccccc2C1c1ccccc1 (stereo not drawn) [Compound A, quinuclidin-3′-yl 1-phenyl-1,2,3,4-tetrahydroisoquinoline-2-carboxylate]	–	–	–	≥ 1 µM	inhibitory effects on rat rhythmic bladder contraction
